This note sets out measurements from US12037583B2, “Compositions and methods for immunooncology” (Novartis AG, priority 2015, dated 2024).

The data set concerns CIITA. Nature of the data set: NGS editing and frameshift edit of CIITA by dgRNA in HEK293 cells expressing Cas9. In kind it is cell-based, human. The settings on record: HEK293 cells stably expressing Cas9, dgRNA to CIITA; for Avg. % Edit: N = 3; for Avg. % FS: frameshift edit.

Procedure: Editing of CIITA with dgRNAs targeted to the CIITA gene were assayed in HEK293 cells engineered to express Cas9, as described above in Example 1.

In the case of “CR002973 (guide CAUCGCUGUUAAGAAGCUCC; targeting domain within dual guide RNA, chemistry not given here, further chemistry not given here; listed as Homo sapiens)”, the “Avg. % Edit” value is on record as 30.60% and the “Avg. % FS” value was 23.55%.
The corresponding values for “CR002974 (guide AGAAGUGGUAGAGGCACAGG; targeting domain within dual guide RNA, chemistry not given here, further chemistry not given here; listed as Homo sapiens)” are 8.99% and 6.92%.
The corresponding values for “CR002975 (guide UAGAAGUGGUAGAGGCACAG; targeting domain within dual guide RNA, chemistry not given here, further chemistry not given here; listed as Homo sapiens)” are 19.31% and 15.82%.
With “CR002977 (guide CAUAGAAGUGGUAGAGGCAC; targeting domain within dual guide RNA, chemistry not given here, further chemistry not given here; listed as Homo sapiens)”, the “Avg. % Edit” value is 19.11% and the “Avg. % FS” value came out at 12.99%.
The corresponding values for “CR002979 (guide CUACCACUUCUAUGACCAGA; targeting domain within dual guide RNA, chemistry not given here, further chemistry not given here; listed as Homo sapiens)” are 28.91% and 23.07%.
As for “CR002981 (guide CUUCUAUGACCAGAUGGACC; targeting domain within dual guide RNA, chemistry not given here, further chemistry not given here; listed as Homo sapiens)”, the “Avg. % Edit” value came to 36.28% and the “Avg. % FS” value turned out to be 29.98%.
The corresponding values for “CR002982 (guide UAUGACCAGAUGGACCUGGC; targeting domain within dual guide RNA, chemistry not given here, further chemistry not given here; listed as Homo sapiens)” are 10.45% and 9.05%.
The corresponding values for “CR002983 (guide CUUCUCCAGCCAGGUCCAUC; targeting domain within dual guide RNA, chemistry not given here, further chemistry not given here; listed as Homo sapiens)” are 35.90% and 33.83%.
“CR002985 (guide CAGUUGAUGGUGUCUGUGUC; targeting domain within dual guide RNA, chemistry not given here, further chemistry not given here; listed as Homo sapiens)”: the “Avg. % Edit” value is reported as 32.99% and the “Avg. % FS” value came to 29.52%.
For “CR002986 (guide GCAGUUGAUGGUGUCUGUGU; targeting domain within dual guide RNA, chemistry not given here, further chemistry not given here; listed as Homo sapiens)”, in that order: 1.77% and 1.48%.
For “CR002989 (guide CACACAACAGCCUGCUGAAC; targeting domain within dual guide RNA, chemistry not given here, further chemistry not given here; listed as Homo sapiens)”, in that order: 27.38% and 8.45%.
For “CR002996 (guide AGGUGCUUCCUCACCGAUAU; targeting domain within dual guide RNA, chemistry not given here, further chemistry not given here; listed as Homo sapiens)”, in that order: 23.91% and 17.83%.
On to “CR002998 (guide GGGAGUCCUGGAAGACAUAC; targeting domain within dual guide RNA, chemistry not given here, further chemistry not given here; listed as Homo sapiens)”, for which the “Avg. % Edit” value was 4.95% and the “Avg. % FS” value was 4.84%.
In the case of “CR002999 (guide UGUCUUCCAGGACUCCCAGC; targeting domain within dual guide RNA, chemistry not given here, further chemistry not given here; listed as Homo sapiens)”, the “Avg. % Edit” value worked out at 23.50% and the “Avg. % FS” value was determined as 18.58%.
As for “CR003000 (guide CUUCCAGGACUCCCAGCUGG; targeting domain within dual guide RNA, chemistry not given here, further chemistry not given here; listed as Homo sapiens)”, the “Avg. % Edit” value is recorded as 12.83% and the “Avg. % FS” value came to 10.53%.
In the case of “CR003002 (guide GGCCCUCCAGCUGGGAGUCC; targeting domain within dual guide RNA, chemistry not given here, further chemistry not given here; listed as Homo sapiens)”, the “Avg. % Edit” value was 11.85% and the “Avg. % FS” value is 9.78%.
The corresponding values for “CR003003 (guide CUUGCUCAGGCCCUCCAGCU; targeting domain within dual guide RNA, chemistry not given here, further chemistry not given here; listed as Homo sapiens)” are 35.07% and 27.91%.
As to “CR003004 (guide CCUUGCUCAGGCCCUCCAGC; targeting domain within dual guide RNA, chemistry not given here, further chemistry not given here; listed as Homo sapiens)”, the “Avg. % Edit” value was 19.43% and the “Avg. % FS” value is 15.63%.
The corresponding values for “CR003005 (guide CCAGCUGGAGGGCCUGAGCA; targeting domain within dual guide RNA, chemistry not given here, further chemistry not given here; listed as Homo sapiens)” are 21.11% and 18.08%.
For “CR003006 (guide UACUGAAAAUGUCCUUGCUC; targeting domain within dual guide RNA, chemistry not given here, further chemistry not given here; listed as Homo sapiens)”, in that order: 19.46% and 14.66%.
For “CR003008 (guide CUCUCACCGAUCACUUCAUC; targeting domain within dual guide RNA, chemistry not given here, further chemistry not given here; listed as Homo sapiens)”, in that order: 15.30% and 10.91%.
In the case of “CR003010 (guide AUGGAGAUGCCAGCAGAAGU; targeting domain within dual guide RNA, chemistry not given here, further chemistry not given here; listed as Homo sapiens)”, the “Avg. % Edit” value is recorded as 25.45% and the “Avg. % FS” value was found to be 14.37%.
The corresponding values for “CR003012 (guide CUUUUCUGCCCAACUUCUGC; targeting domain within dual guide RNA, chemistry not given here, further chemistry not given here; listed as Homo sapiens)” are 10.67% and 7.51%.
The corresponding values for “CR003014 (guide GGUCUGCCGGAAGCUCCUCU; targeting domain within dual guide RNA, chemistry not given here, further chemistry not given here; listed as Homo sapiens)” are 32.51% and 26.93%.
For “CR003015 (guide AGGUCUGCCGGAAGCUCCUC; targeting domain within dual guide RNA, chemistry not given here, further chemistry not given here; listed as Homo sapiens)”, in that order: 27.40% and 24.05%.
“CR003016 (guide UUCCGGCAGACCUGAAGCAC; targeting domain within dual guide RNA, chemistry not given here, further chemistry not given here; listed as Homo sapiens)”: the “Avg. % Edit” value is recorded as 17.86% and the “Avg. % FS” value was found to be 13.55%.
For “CR003017 (guide UUCCAGUGCUUCAGGUCUGC; targeting domain within dual guide RNA, chemistry not given here, further chemistry not given here; listed as Homo sapiens)”, in that order: 21.90% and 15.22%.
The corresponding values for “CR003018 (guide GAGCCCCCCACUGUGGUGAC; targeting domain within dual guide RNA, chemistry not given here, further chemistry not given here; listed as Homo sapiens)” are 27.72% and 26.54%.
Turning to “CR003019 (guide CUGCCAGUCACCACAGUGGG; targeting domain within dual guide RNA, chemistry not given here, further chemistry not given here; listed as Homo sapiens)”, the “Avg. % Edit” value is 11.80% and the “Avg. % FS” value came to 9.74%.
Turning to “CR003020 (guide ACUGCCAGUCACCACAGUGG; targeting domain within dual guide RNA, chemistry not given here, further chemistry not given here; listed as Homo sapiens)”, the “Avg. % Edit” value came out at 23.67% and the “Avg. % FS” value was 16.44%.
